Test results reported in patent US4690920A, “Derivative of cephalosporanic acid and pharmaceutical composition comprising the same” (Kureha Kagaku Kogyo Kabushiki Kaisha, priority 1982, dated 1987).

Columns and labels:
Escherichia coli = experiment: Effect on the intestinal bacterial colonies: number of Escherichia coli in feces; assay type: in vivo, Escherichia coli (feces of female ICR mice); details: oral, 500 mg/kg/day for 2 days; feces one day after administration; before administration 7.0
Protocol: (§1) After collecting the feces of a group of mice, each of the compounds represented by the formula (I) was orally administered to each of the group for 2 continued days at a daily dose rate of 500 mg per kg body weight, and the feces were again collected one day after the administration. Each portion of the thus collected, two kinds of the feces was cultured at 25° C. or 37° C. in a variety of culture media for one to five days to see the state of growth of the following bacteria which are present habitually in the intestine of the mouse: Escherichia coli, Pseudomonas aeruginosa, a streptococcus bacterial species, a lactobacillis bacteria, Lactobacillus bifidus and a bacterioides bacteria.
(§2) Each of the compounds, respectively produced in Examples 1 to 6 was orally administered for two continued days at a daily dosage of 500 mg/kg body weight to each of five female ICR mice of a group after 6 weeks of birth.
(§3) Each of the two fecal specimens respectively collected before and after one day of the administration was diluted with 100 times by weight of an anaerobic diluent (a phosphoric buffer solution) and was ground in a mortar, and 0.1 ml of the ground material was smeared on each of the following culture media for the following bacteria and the thus inoculated culture media were incubated under the following conditions. Thereafter, the number of the following bacteria was determined on each culture medium.
DHL agar 37° C., for 1 day, […]

Pseudomonas aeruginosa = experiment: Effect on the intestinal bacterial colonies: number of Pseudomonas aeruginosa in feces; assay type: in vivo, Pseudomonas aeruginosa (feces of female ICR mice); details: oral, 500 mg/kg/day for 2 days; feces one day after administration; before administration <3.0
Protocol: as §1, §2, §3
NAC agar 37° C., for 1 day, […]

[1] = test system: A species of Streptococcus; experiment: Effect on the intestinal bacterial colonies: number of a species of Streptococcus in feces; assay type: in vivo, Streptococcus (feces of female ICR mice); details: oral, 500 mg/kg/day for 2 days; feces one day after administration; before administration 6.4
Protocol: as §1, §2, §3
a species of TATAC agar 37° C., for 1 day, […]

[2] = test system: A species of Lactobacillus; experiment: Effect on the intestinal bacterial colonies: number of a species of Lactobacillus in feces; assay type: in vivo, Lactobacillus (feces of female ICR mice); details: oral, 500 mg/kg/day for 2 days; feces one day after administration; before administration 9.0
Protocol: as §1, §2, §3
a species of LBS agar 37° C., for 5 days, […]

Lactobacillus bifidus = experiment: Effect on the intestinal bacterial colonies: number of Lactobacillus bifidus in feces; assay type: in vivo, Lactobacillus bifidus (feces of female ICR mice); details: oral, 500 mg/kg/day for 2 days; feces one day after administration; before administration 8.0
Protocol: as §1, §2, §3
BS agar 37° C., for 5 days, […]

[3] = test system: A species of Bacterioides; experiment: Effect on the intestinal bacterial colonies: number of a species of Bacterioides in feces; assay type: in vivo, Bacteroides (feces of female ICR mice); details: oral, 500 mg/kg/day for 2 days; feces one day after administration; before administration 8.1
Protocol: as §1, §2, §3
a species of NBGT agar 37° C., for 5 days,7 -Bacteroides anaer

[4] = test system: Escherichia coli IFO 12734; experiment: Anti-bacterial activity, agar plate dilution method (MIC), Escherichia coli; assay type: cell-based; details: Mueller-Hinton agar, 18 to 24 hours, 37° C.
Protocol: (§4) 3-1: The minimum growth-inhibiting concentration (MIC) of each of the compounds represented by the formula (I) was measured according to the standard procedures of Japan Society of Chemotherapy against each of the following bacterial species:
Escherichia coli, IFO 12734 and
(§5) Anti-bacterial activity of each of the compounds produced in Examples 1 to 6 was measured according to the standard procedures of Japan Society of Chemotherapy in agar plate dilution method as follows:
(§6) As a test bacterial species, Escherichia coli IFO 12734 and Staphylococcus aureus IAM 1011, and each strain was inoculated into Mueller-Hinton's culture medium for 18 to 48 hours at 37° C., and while using the thus cultured bacteria, each of the test bacterial liquid containing 10^6 cells in one ml was prepared.
(§7) Separately, after preparing each series of diluted aqueous solutions of each of the compounds produced in Examples 1 to 6, respectively, each of them was mixed in amount of 1/9 time by weight with the Mueller-Hinton's culture medium and each flat agar culture plate was prepared by using the thus formed mixture.

[5] = test system: Staphylococcus aureus IAM 1011; experiment: Anti-bacterial activity, agar plate dilution method (MIC), Staphylococcus aureus; assay type: cell-based; details: Mueller-Hinton agar, 18 to 24 hours, 37° C.
Protocol: as §4
Staphylococcus aureus, IAM 1011
as §5, §6, §7

[6] = test system: Staphylococcus aureus IAM 1011; experiment: Model test for verifying the activation in living body: growth-inhibition circle with/without rat liver S-9 mix; assay type: cell-based; details: 20 min at 37° C., then 18 hours at 37° C.; for Sign: diameter of growth-inhibiting circle as percentage of that due to compound of formula (II), with the addition of S-9 mix: with the addition of S-9 mix (rat liver homogenate)
Protocol: On each flat culture plate prepared by adding 10^8 cells/ml of a preliminarily cultured Staphylococcus aureus IAM 1011 into 50 times by weight of Mueller-Hinton's agar culture medium, a penicillin cup of 8 mm in diameter was placed, and into each cup 0.1 ml of each of the compounds represented by the formula (I) or 0.1 ml of a cultured product of each of the compounds represented by the formula (I) together with a rat liver homogenate (containing a metabolism-activating enzyme, referred to as S-9 mix) was introduced. The diameter of each growth-inhibition circle formed around the cup after incubating the flat culture plate with the cup for 18 hours at 37° C. was measured, and the thus obtained value was compared to the value obtained by the same procedures except for using the compound represented by the formula (II), the starting compound instead of each of the compounds represented by the formula (I).
As a metabolism-activating enzyme, a rat liver homogenate (S-9, manufactured by Oriental Yeast Co.) was used in the following composition (referred to as S-9 mix, hereinafter):
After mixing 0.1 ml of a solution of the compound to be tested with 0.9 ml of S-9 mix or 0.9 ml of 0.1M phosphoric acid buffer solution, the mixture was subjected to shaking culture for 20 min at 37° C. to prepare a test reaction solution for use in the following experiment.
Staphylococcus aureus IAM 1011 was inoculated to Mueller-Hinton's culture medium and the inoculum was cultured for 18 hours at 37° C. and after adjusting the number of the bacterial cells to 10^8 /ml of the culture medium, 50 times by weight of the Mueller-Hinton's agar culture medium were added to the cultured medium to prepare flat culture plates.
After placing a penicillin-cup of 8 mm in diameter on each of the thus prepared flat culture plates, 0.1 ml of the above-mentioned test reaction solution was introduced into the penicillin-cup, and after leaving the system for 2 hours at 4° C., the system was incubated for 18 hour at 37° C., and the diameter of the growth-inhibition circle around the cup on the culture plate was determined.
The thus obtained diameter of the growth-inhibiting circle due to each of the compounds produced respectively in Examples 1 to 6 was compared to that due to the compound repesente by the formula (II), substituted cephalosporanic acid by percentage, and the following signs were respectively given to the respective compounds as follows: […]

[7] = test system: Escherichia coli IFO 12734; experiment: Effectiveness in treating experimental infectious disease, Escherichia coli; assay type: in vivo, mice (ddY-SPF) infected with Escherichia coli; details: of 20 mice; 1.4×10^8 cells i.p.; 500 mg/kg orally two times, just after and after 4 hours; all untreated died on second day
Protocol: (§8) Each of 20 mice of a group was infected by intraperitoneal inoculation of Escherichia coli IFO 12734 or Staphylococcus aureus IAM 1011, and just after or after 4 hours of the inoculation, each of the compounds represented by the formula (I) was orally administered to the inoculated mouse at a dose rate of 500 mg/kg body weight.
(§9) Cells in number of 1.4×10^8 of Escherichia coli IFO 12734 were intraperitoneally inoculated to each of 40 ddY-SPF mice, and each of 20 mice of the 40 mice was administered two times just after and after 4 hours of the inoculation with each 500 mg of the compound produced in Example 4 per kg of body weight orally, and the other 20 mice were kept untreated.

[8] = test system: Staphylococcus aureus IAM 1011; experiment: Effectiveness in treating experimental infectious disease, Staphylococcus aureus; assay type: in vivo, mice (ddY-SPF) infected with Staphylococcus aureus; details: of 20 mice; 2.3×10^8 cells i.p.; 500 mg/kg orally two times; all untreated died on second day
Protocol: as §8, §9
Quite the same experiments as in (10-1) except for intraperitoneously inoculating Staphylococcus aureus IAM 1011 in number of 2.3×10^8instead of 1.4×10^8 cells of E. coli was carried out by administering two times with each 500 mg of the compound produced in Example 4. As a result, all the 20 mice inoculated and not administered died on the second day of inoculation, however, more than 70% of the inoculated and administered 20 mice were alive even on the 7th day of inoculation.

COC(=O)CNC(=O)c1ccc(NC(=O)C2=C(CSc3nnnn3C)CSC3N2C(=O)C3(NC(=O)CSCC#N)OC)cc1 (stereo not drawn) [Example 4, N-(4-carbomethoxymethylcarbamoylphenyl)-{7-beta-cyanomethylthioacetamido-7-alpha-methoxy-3-[(1-methyl-1H-tetrazol-5-yl)thio]methyl-3-cepheme-4-carboxylic}amide]
Log10 value of the number of bacterial cells/g of feces, Escherichia coli (Escherichia coli): 7.0 Log10 cells/g of feces | Log10 value of the number of bacterial cells/g of feces, Pseudomonas aeruginosa (Pseudomonas aeruginosa): < 3.0 Log10 cells/g of feces | Log10 value of the number of bacterial cells/g of feces, a species of Streptococcus [1]: 5.9 Log10 cells/g of feces | Log10 value of the number of bacterial cells/g of feces, a species of Lactobacillus [2]: 9.3 Log10 cells/g of feces | Log10 value of the number of bacterial cells/g of feces, Lactobacillus bifidus (Lactobacillus bifidus): 7.9 Log10 cells/g of feces | Log10 value of the number of bacterial cells/g of feces, a species of Bacterioides [3]: 8.3 Log10 cells/g of feces | Minimum concentration of inhibiting growth of Escherichia coli (MIC) [4]: ≥ 100 microgram/ml | Minimum concentration of inhibiting growth of Staphylococcus aureus (MIC) [5]: ≥ 100 microgram/ml | Sign: diameter of growth-inhibiting circle as percentage of that due to compound of formula (II), with the addition of S-9 mix [6]: + (1 to 33) | Sign: diameter of growth-inhibiting circle as percentage of that due to compound of formula (II), without adding S-9 mix [6]: - (0) | mice alive on the 7th day of inoculation [7]: more than 16 mice | inoculated and administered mice alive on the 7th day of inoculation [8]: more than 70%

COC1(NC(=O)CSCC#N)C(=O)N2C(C(=O)Nc3ccc(C)cc3)=C(CSc3nnnn3C)CSC21 (stereo not drawn) [Example 6, N-(4-methylphenyl)-{7-beta-cyanomethylthioacetamido-7-alpha-methoxy-3-[(1-methyl-1H-tetrazol-5-yl)thio]methyl-3-cepheme-4-carboxylic}amide]
Log10 value of the number of bacterial cells/g of feces, Escherichia coli (Escherichia coli): 6.9 Log10 cells/g of feces | Log10 value of the number of bacterial cells/g of feces, Pseudomonas aeruginosa (Pseudomonas aeruginosa): < 3.0 Log10 cells/g of feces | Log10 value of the number of bacterial cells/g of feces, a species of Streptococcus [1]: 6.3 Log10 cells/g of feces | Log10 value of the number of bacterial cells/g of feces, a species of Lactobacillus [2]: 9.2 Log10 cells/g of feces | Log10 value of the number of bacterial cells/g of feces, Lactobacillus bifidus (Lactobacillus bifidus): 8.0 Log10 cells/g of feces | Log10 value of the number of bacterial cells/g of feces, a species of Bacterioides [3]: 8.0 Log10 cells/g of feces | Minimum concentration of inhibiting growth of Escherichia coli (MIC) [4]: ≥ 100 microgram/ml | Minimum concentration of inhibiting growth of Staphylococcus aureus (MIC) [5]: ≥ 100 microgram/ml | Sign: diameter of growth-inhibiting circle as percentage of that due to compound of formula (II), with the addition of S-9 mix [6]: + (1 to 33) | Sign: diameter of growth-inhibiting circle as percentage of that due to compound of formula (II), without adding S-9 mix [6]: - (0)
